{"source": "patent US8202893B2", "about": "“Cannabinergic lipid ligands” (University of Connecticut, priority 2004, dated 2012)", "key": {"[1]": {"target": "T1, Mag-lipase (Rattus norvegicus, UniProt Q8R431)", "T1 construct": "supernatant from final spin in the anandamide amidase preparation; from tissue; host or cells: supernatant (soluble fraction) of the anandamide amidase preparation, rat brain by the cited procedure", "T1 sequence (Q8R431 1-303)": "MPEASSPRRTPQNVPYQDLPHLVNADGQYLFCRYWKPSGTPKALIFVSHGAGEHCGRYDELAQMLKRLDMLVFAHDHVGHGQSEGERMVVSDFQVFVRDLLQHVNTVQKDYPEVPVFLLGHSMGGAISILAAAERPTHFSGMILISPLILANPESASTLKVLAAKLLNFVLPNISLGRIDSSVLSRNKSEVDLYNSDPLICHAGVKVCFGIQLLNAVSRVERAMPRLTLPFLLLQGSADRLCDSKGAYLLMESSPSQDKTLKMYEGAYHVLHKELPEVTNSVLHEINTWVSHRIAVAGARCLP", "experiment": "Inhibition of MAG-lipase: 2-AG metabolism to arachidonic acid", "assay_type": "biochemical", "conditions": "20 min, 30 nmoles compound with 30 nmoles 2-AG, 30 μg enzyme, 300 μL", "procedure": "All compound solutions were made to a concentration of 10 mM in DMSO. Three tests were performed on each compound: hydrolysis, to determine the stability of the compound in assay conditions without the enzyme present; metabolism, to determine the stability of the compound with the enzyme present; and inhibition of 2-Arachidonoyl glycerol (native substrate) metabolism to arachidonic acid.\nThe inhibition of 2-AG metabolism was measured by mixing 30 nmoles of the compound with 30 nmoles 2-AG, and 30 μg enzyme preparation in TME buffer (final volume of 300 μL). Again the reaction mixture was treated in the same manner as described above and the concentrations of 2-AG and AA were calculated using external standards. Percent inhibition was calculated using the following equation: % Inhib.=(AA20-AA0)i/(AA20-AA0)s where (AA20-AA0)i is the amount of arachidonic acid formed over 20 minutes from 2-AG with the inhibitor present and (AA20-AA0)s is the amount of arachidonic acid formed over 20 minutes from 2-AG when the inhibitor is not present. […] The reaction mixtures were treated as described above and the amount of AA formed was calculated. The software package GraphPad Prism was utilized to calculate IC50 and Ki. HPLC Conditions:\nChromatographic separation was achieved using an Ultrasphere ODS Pre-column (4.6×45 mm) from Beckman. Hardware consisted of a Waters Millennium HPLC system with a 20 μL injection loop. The mobile phase consisted of 8.5% o-phosphoric acid:acetonitrile (3:7), run isocratically at a rate of 1 mL/min and detection at 204 nm. The total run time was 8 minutes with 2-AG eluting at 3.0 minutes and AA at 6.0 minutes."}, "[2]": {"test_system": "anandamide transporter", "experiment": "[3H]Anandamide transporter competition assay", "assay_type": "cell-based", "conditions": "human CCF-STG1 astrocytoma cells, 10 nM [3H]anandamide", "procedure": "Human CCF-STG1 astrocytoma cells (American Type Culture collection) were grown in RPMI1640 culture medium containing 2 mM L-glutamine, 4.5 g/L glucose, 10 mM HEPES, and 1.0 mM sodium pyruvate, 10% FBS, cultures at 37° C. with 5% CO2. For standard competition assays, confluent cells grown in 24-well plates were rinsed and preincubated for 10 min at 37° C. in assay buffer (Hank's Balanced Salt Solution containing 0.1% DMSO, 10 mM HEPES) plus test compounds (at their final concentrations of 0.01-100 μM). After having discarded the preincubation media, the cells were incubated for 4 min in 0.2 ml assay buffer containing 10 nM [^3H] anandamide (137.6 Ci/mmol, New England Nuclear) plus test compounds. Reactions were stopped by removing the incubation media and rinsing the cells three times with 0.5 ml of ice-cold HBSS buffer containing 0.1% fatty acid-free Bovine Serum Albumin (sigma). Radioactive material in Triton X-100 cell extracts was measured by liquid scintillation counting. A minimum of three independent experiments conducted in six replicates was used to define the concentration needed to produce half-maximal inhibition (IC50) for each compound. IC50 values were obtained by nonlinear regression fitting of the data, using the PRIZM software package. Data are expressed as mean±SEM."}}, "note": "pIC50: −log10 of the molar value. Read-outs that look alike come from different tables or passages of the source.", "data": [{"smiles": "O=C(CCC/C=C\\C/C=C\\C/C=C\\C/C=C\\CCCCc1ccccc1)NCC1CC1", "note": "[Compound A1]", "values": [{"measurement": "inhibition at 100 µM", "setting": "[1]", "result": 20.5, "unit": "%"}]}, {"smiles": "O=C(CCC/C=C\\C/C=C\\C/C=C\\C/C=C\\CCc1ccccc1)NCC1CC1", "note": "[Compound A2]", "values": [{"measurement": "inhibition at 100 µM", "setting": "[1]", "result": 37.5, "unit": "%"}]}, {"smiles": "O=C(CCC/C=C\\C/C=C\\C/C=C\\C/C=C\\CCc1ccccc1)Nc1ccc(O)cc1", "note": "[Compound A3]", "values": [{"measurement": "inhibition at 100 µM", "setting": "[1]", "result": 16.7, "unit": "%"}, {"measurement": "pIC50", "setting": "[2]; read-out: IC50 AT inhibition", "result": 5.04}]}, {"smiles": "O=C(CCC/C=C\\C/C=C\\C/C=C\\C/C=C\\CCc1ccccc1)Nc1nccs1", "note": "[Compound A4]", "values": [{"measurement": "inhibition at 100 µM", "setting": "[1]", "result": 9.2, "unit": "%"}]}, {"smiles": "[N-]=[N+]=NCCCC/C=C\\C/C=C\\C/C=C\\C/C=C\\CCCC(=O)NCC1CC1", "note": "[Compound A6]", "values": [{"measurement": "inhibition at 100 µM", "setting": "[1]", "result": 20.7, "unit": "%"}]}, {"smiles": "COc1cc(CNC(=O)CCC/C=C\\C/C=C\\C/C=C\\C/C=C\\CCCCN=[N+]=[N-])ccc1O", "note": "[Compound A7]", "values": [{"measurement": "inhibition at 100 µM", "setting": "[1]", "result": 13.7, "unit": "%"}]}, {"smiles": "O=C(CCC/C=C\\C/C=C\\C/C=C\\C/C=C\\CCCCCBr)NC1CC1", "note": "[Compound A18]", "values": [{"measurement": "inhibition at 100 µM", "setting": "[1]", "result": 22.5, "unit": "%"}, {"measurement": "pIC50", "setting": "[2]; read-out: IC50 AT inhibition", "result": 5.17}]}, {"smiles": "CCCCCC=CCC=CCC=CCC=CCCCCOC(=O)NCC(C)O", "note": "(centres unmarked) [Compound B3]", "values": [{"measurement": "Mag-Lipase % Inhibition", "setting": "[1]", "result": 14.3, "unit": "%"}, {"measurement": "pIC50", "setting": "[2]; read-out: IC50 (AT inhib.)", "result": 5.82}]}, {"smiles": "CCCCC/C=C\\C/C=C\\C/C=C\\C/C=C\\CCCCNC(=O)NC[C@H](C)O", "note": "[Compound B12]", "values": [{"measurement": "inhibition at 100 µM", "setting": "[1]", "result": 11.1, "unit": "%"}, {"measurement": "pIC50", "setting": "[2]; read-out: IC50 (AT inhib.)", "result": 5.75}]}, {"smiles": "CCCCC/C=C\\C/C=C\\CCCCCCCCOC(=O)NC[C@H](C)O", "note": "[Compound B14]", "values": [{"measurement": "Mag-Lipase % Inhibition", "setting": "[1]", "result": 25.8, "unit": "%"}, {"measurement": "pIC50", "setting": "[2]; read-out: IC50 (AT inhib.)", "result": 5.14}]}, {"smiles": "CC/C=C\\C/C=C\\C/C=C\\CCCCCCCCOC(=O)NC[C@H](C)O", "note": "[Compound B15]", "values": [{"measurement": "Mag-Lipase % Inhibition", "setting": "[1]", "result": 24.6, "unit": "%"}, {"measurement": "pIC50", "setting": "[2]; read-out: IC50 (AT inhib.)", "result": 5.35}]}]}
